Results on 29 compounds are retold here after patent US8822449B2, “Substituted aminoindanes and analogs thereof, and the pharmaceutical use thereof” (Sanofi, priority 2008, dated 2014).

One experiment concerns the target T1, sodium-proton exchanger of subtype 3 (NHE3) (Homo sapiens, UniProt P48764).
T1 construct: expressed in transfected cells
T1 sequence (P48764 26-834): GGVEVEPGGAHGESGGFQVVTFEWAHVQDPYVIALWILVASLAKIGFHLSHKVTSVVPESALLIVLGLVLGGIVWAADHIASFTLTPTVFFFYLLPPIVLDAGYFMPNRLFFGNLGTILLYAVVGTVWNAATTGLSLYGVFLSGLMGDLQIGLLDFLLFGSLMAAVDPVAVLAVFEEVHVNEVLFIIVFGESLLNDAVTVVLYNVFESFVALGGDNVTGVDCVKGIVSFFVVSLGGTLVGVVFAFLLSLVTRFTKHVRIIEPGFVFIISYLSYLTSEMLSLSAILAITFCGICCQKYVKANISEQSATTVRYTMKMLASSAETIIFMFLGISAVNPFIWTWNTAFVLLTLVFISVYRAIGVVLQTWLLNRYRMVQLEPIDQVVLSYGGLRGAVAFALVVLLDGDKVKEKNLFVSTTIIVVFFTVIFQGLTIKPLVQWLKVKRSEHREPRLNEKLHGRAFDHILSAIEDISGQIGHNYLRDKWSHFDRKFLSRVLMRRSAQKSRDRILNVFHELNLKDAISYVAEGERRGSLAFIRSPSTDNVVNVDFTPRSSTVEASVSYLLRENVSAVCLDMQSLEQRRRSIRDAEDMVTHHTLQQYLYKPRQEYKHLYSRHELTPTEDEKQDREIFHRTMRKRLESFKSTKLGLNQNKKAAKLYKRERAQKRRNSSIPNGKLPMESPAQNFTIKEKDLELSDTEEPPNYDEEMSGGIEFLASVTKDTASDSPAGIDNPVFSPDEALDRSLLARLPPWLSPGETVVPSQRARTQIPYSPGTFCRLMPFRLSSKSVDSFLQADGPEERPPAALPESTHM
The experiment can be described thus: Recovery of intracellular pH (pHi) after acidification in LAP1 cells stably expressing NHE3 (BCECF fluorescence, FLIPR). It is filed as cell-based. Conditions: Activity range (inhibitory effect on NHE3), LAP1 cells stably expressing NHE3; pH recovery after acidification; range 1 is % inhibition at 10 μM.
For the compound `CCN(CC)C(=O)c1ccc(O[C@H]2c3ccccc3C[C@@H]2N2CCCC2)cc1` (racemic) [Example 633, N,N-diethyl-4-(rac-trans-(1,2)-2-pyrrolidin-1-ylindan-1-yloxy)benzamide], the IC50 is 1000 to 10000 nM.

The same experiment, now with this note: LAP1 cells stably expressing NHE3; pH recovery after acidification; range 1 is % inhibition at 10 μM; read-out: Activity range (inhibitory effect on NHE3).
Regarding `O=C1OCCN1c1ccc(O[C@H]2c3cc(Cl)cc(Cl)c3C[C@@H]2N2CC[C@@H](O)C2)cc1` [Example 429, 3-{4-[trans-(1S,2S)-4,6-dichloro-2-((R)-3-hydroxypyrrolidin-1-yl)indan-1-yloxy]phenyl}oxazolidin-2-one], the IC50 is 1000 to 10000 nM.

As to `CS(=O)(=O)c1ccc(N[C@H]2c3ccccc3C[C@@H]2N2CCCC2)cc1` [Example 707, (4-Methanesulfonyl-phenyl)-((1S,2S)-2-pyrrolidin-1-yl-indan-1-yl)-amine], the IC50 lay in the range of 1000 to 10000 nM.

Consider `CC(=O)Nc1cccc(O[C@@H]2c3ccccc3C[C@H]2N2CCC[C@H](N)C2)c1` (racemic) [Example 685, N-{3-[rac-trans-(1,2)-2-((S)-3-aminopiperidin-1-yl)indan-1-yloxy]phenyl}acetamide], for which the IC50 lay in the range of 1000 to 10000 nM.

On to `Cc1nnc(C)n1-c1ccc(O[C@H]2c3cc(Cl)cc(Cl)c3C[C@@H]2N2CC[C@H](N)C2)cc1` [Example 207, (S)-1-{trans-(1S,2S)-4,6-dichloro-1-[4-(3,5-dimethyl-[1,2,4]triazol-4-yl)phenoxy]indan-2-yl}pyrrolidin-3-ylamine], for which the IC50 was under 1000 nM.

`CS(=O)(=O)c1ccc(O[C@H]2c3cc(Cl)cc(Cl)c3C[C@@H]2N2CCCN(CCO)CC2)cc1` (racemic) [Example 383, 2-{4-[rac-trans-(1,2)-4,6-dichloro-1-(4-methanesulfonylphenoxy)indan-2-yl]-[1,4]diazepan-1-yl}-ethanol]: the IC50 was under 1000 nM.

Take `NCC1CCN([C@@H]2Cc3ccccc3[C@H]2Oc2ccc(Br)cc2-c2cc[nH]n2)C1` (mixture of isomers) [Example 600, C-(1-{rac-trans-(1,2)-1-[4-bromo-2-(1H-pyrazol-3-yl)phenoxy]indan-2-yl}pyrrolidin-3-yl)methylamine]: the IC50 fell in the range of 1000 to 10000 nM.

Consider `N[C@H]1CCCN([C@H]2CCc3ccccc3[C@@H]2Oc2ccc(OC(F)F)cc2)C1` (racemic) [Example 176, (S)-1-[rac-trans-(1,2)-1-(4-difluoromethoxyphenoxy)-1,2,3,4-tetrahydronaphthalen-2-yl]piperidin-3-ylamine], for which the inhibition at 10 µM was in the range of 20 to 50%.

In the case of `CCN(CC)[C@@H]1Cc2ccccc2[C@H]1Oc1ccc(CCOC)cc1` (racemic) [Example 628, Diethyl-{rac-trans-(1,2)-1-[4-(2-methoxyethyl)phenoxy]indan-2-yl}amine], the IC50 lay in the range of 1000 to 10000 nM.

For the compound `N[C@@H]1CCCN([C@H]2CCc3ccccc3[C@@H]2Oc2ccc(F)cc2)C1` (racemic) [Example 70, (R)-1-[rac-trans-(1,2)-1-(4-fluorophenoxy)-1,2,3,4-tetrahydronaphthalen-2-yl]piperidin-3-ylamine], the inhibition at 10 µM was in the range of 20 to 50%.

In the case of `Cc1nnc(C)n1-c1ccc(O[C@H]2c3cc(Cl)cc(Cl)c3C[C@@H]2N2CC[C@@H](O)C2)c(F)c1` [Example 130, (R)-1-{trans-(1S,2S)-4,6-dichloro-1-[4-(3,5-dimethyl-[1,2,4]triazol-4-yl)-2-fluorophenoxy]indan-2-yl}pyrrolidin-3-ol], the IC50 is under 1000 nM.

For `CC(=O)Nc1cccc(O[C@H]2c3cc(Cl)cc(Cl)c3C[C@@H]2N2CCOCC2)c1` (racemic) [Example 646, N-[3-(rac-trans-(1,2)-4,6-dichloro-2-morpholin-4-ylindan-1-yloxy)phenyl]acetamide], the inhibition at 10 µM lay in the range of 20 to 50%.

Turning to `O=c1[nH]ccn1-c1ccc(O[C@H]2c3cc(Cl)cc(Cl)c3C[C@@H]2N2CC[C@@H](O)C2)cc1` [Example 325, 1-{4-[(1S,2S)-4,6-dichloro-2-((R)-3-hydroxypyrrolidin-1-yl)indan-1-yloxy]phenyl}-1,3-dihydroimidazol-2-one], the IC50 is under 1000 nM.

As for `CN(C)Cc1cccc(O[C@@H]2c3ccccc3C[C@H]2N2CCC[C@H](N)C2)c1` (racemic) [Example 167, (S)-1-[rac-trans-(1,2)-1-(3-dimethylaminomethylphenoxy)indan-2-yl]piperidin-3-ylamine], the IC50 lay within 1000 to 10000 nM.

Turning to `N[C@@H]1CCCN([C@H]2CCc3ccccc3[C@@H]2Oc2cnc3ccccc3c2)C1` (racemic) [Example 87, (R)-1-[rac-trans-(1,2)-1-(quinolin-3-yloxy)-1,2,3,4-tetrahydronaphthalen-2-yl]piperidin-3-ylamine], the inhibition at 10 µM was 20 to 50%.

For `Nc1cccc(O[C@@H]2c3ccccc3C[C@H]2N2CCCC2)c1` (racemic) [Example 401, 3-(rac-trans-(1,2)-2-pyrrolidin-1-ylindan-1-yloxy)phenylamine], the IC50 fell in the range of 1000 to 10000 nM.

As for `O=[N+]([O-])c1ccc(O[C@@H]2c3ccccc3C[C@@H]2N2CCOCC2)c(Cl)c1` (racemic) [Example 478, 4-[(1R,2S)-1-(2-chloro-4-nitrophenoxy)indan-2-yl]morpholine], the inhibition at 10 µM lay in the range of 20 to 50%.

As to `CS(=O)(=O)c1ccc(O[C@H]2c3cc(Cl)cc(Cl)c3C[C@@H]2N2CC[C@@H](NCCF)C2)cc1` [Example 226, {(R)-1-[trans-(1S,2S)-4,6-dichloro-1-(4-methanesulfonylphenoxy)indan-2-yl]pyrrolidin-3-yl}-(2-fluoroethyl)amine], the IC50 is under 1000 nM.

With `O=C1OCCN1c1cccc(O[C@H]2c3cc(Cl)cc(Cl)c3C[C@@H]2N2CC[C@@H](O)C2)c1` [Example 419, 3-{3-[(1S,2S)-4,6-dichloro-2-((R)-3-hydroxypyrrolidin-1-yl)indan-1-yloxy]phenyl}oxazolidin-2-one], the IC50 was in the range of 1000 to 10000 nM.

Regarding `C[C@H]1CN([C@H]2Cc3c(Cl)cc(Cl)cc3[C@@H]2Oc2ccc(S(C)(=O)=O)cc2)CCN1` [Example 197, (S)-1-[trans-(1S,2S)-4,6-dichloro-1-(4-methanesulfonylphenoxy)indan-2-yl]-3-methylpiperazine], the IC50 is under 1000 nM.

Regarding `CO[C@@H]1CCN(C2Cc3ccccc3C2Oc2cccc(NC(C)=O)c2)C1` (mixture of isomers) [Example 682, N-{3-[rac-trans-(1,2)-2-((R)-3-methoxypyrrolidin-1-yl)indan-1-yloxy]phenyl}acetamide], the IC50 was 1000 to 10000 nM.

Turning to `Cc1nc(C(C)(C)C)cn1-c1ccc(O[C@H]2c3cc(Cl)cc(Cl)c3C[C@@H]2N2CC[C@@H](O)C2)c(F)c1` [Example 729, (R)-1-{trans-(1S,2S)-1-[4-(4-tert-Butyl-2-methyl-imidazol-1-yl)-2-fluoro-phenoxy]-4,6-dichloro-indan-2-yl}-pyrrolidin-3-ol], the IC50 was in the range of 1000 to 10000 nM.

For `N[C@@H]1CCCN([C@@H]2Cc3ccccc3[C@H]2Oc2ccc(NC(=O)OCc3ccccc3)cc2)C1` (racemic) [Example 238, {4-[rac-trans-(1,2)-2-((R)-3-aminopiperidin-1-yl)indan-1-yloxy]phenyl}carbamic acid benzyl ester], the IC50 is 1000 to 10000 nM.

For `CC(=O)Nc1cccc(O[C@@H]2c3ccccc3C[C@H]2N2C[C@H]3CNC[C@H]3C2)c1` (racemic) [Example 674, N-{3-[rac-trans-(1,2)-2-(hexahydropyrrolo[3,4-c]pyrrol-2-yl)indan-1-yloxy]phenyl}acetamide], the IC50 is 1000 to 10000 nM.

In the case of `CN(C)C(=O)Cc1ccc(O[C@H]2c3ccccc3CC[C@@H]2N2CCC[C@@H](N)C2)cc1` (racemic) [Example 380, 2-{4-[rac-trans-(1,2)-2-((R)-3-aminopiperidin-1-yl)-1,2,3,4-tetrahydronaphthalen-1-yloxy]phenyl}-N,N-dimethylacetamide], the inhibition at 10 µM fell in the range of 20 to 50%.

Regarding `N[C@@H]1CCCN([C@H]2CCc3ccccc3[C@@H]2Oc2ccc(F)cc2-c2cc[nH]n2)C1` (racemic) [Example 120, (R)-1-{rac-trans-(1,2)-1-[4-fluoro-2-(1H-pyrazol-3-yl)phenoxy]-1,2,3,4-tetrahydronaphthalen-2-yl}piperidin-3-ylamine], the IC50 was under 1000 nM.

Take `Cc1noc(C)c1-c1ccc(O[C@H]2c3cc(Cl)cc(Cl)c3C[C@@H]2N2CC[C@@H](O)C2)cc1` [Example 135, (R)-1-{trans-(1S,2S)-4,6-dichloro-1-[4-(3,5-dimethylisoxazol-4-yl)phenoxy]indan-2-yl}pyrrolidin-3-ol]: the inhibition at 10 µM lay in the range of 20 to 50%.

With `O=C(O)c1ccc(O[C@H]2c3ccccc3C[C@@H]2CN2CCCC2)cc1Cl` (racemic) [Example 390, 2-chloro-4-(2-pyrrolidin-1-ylmethylindan-1-yloxy)benzoic acid], the inhibition at 10 µM is 20 to 50%.

As for `NCC1CCN([C@@H]2Cc3ccccc3[C@H]2Oc2ccc3c(c2)OCO3)CC1` (racemic) [Example 620, C-{1-[rac-trans-(1,2)-1-(benzo[1,3]dioxol-5-yloxy)indan-2-yl]piperidin-4-yl}methylamine], the IC50 is 1000 to 10000 nM.
